Experiment [1] concerns the target T1, PKB-PIF fusion protein (protein kinase B) (Homo sapiens, UniProt P31751).
T1 construct: PIF (fusion partner); made in house
Kind of experiment: Measurement of PKB kinase inhibitory activity (IC50). As to conditions: 0.6 nM enzyme, 30 μM ATP/γ33P-ATP, 25 μM AKTide-2T substrate; read-out: PKB IC50. In kind it is biochemical. The procedure:
The reaction is allowed to proceed for 20 minutes before addition of excess orthophosphoric acid to quench activity. The reaction mixture is transferred to a phosphocellulose filter plate where the peptide binds and the unused ATP is washed away. After washing, scintillant is added and the incorporated activity measured by scintillation counting.

The target in experiment [2] is T2, PKA catalytic domain (Homo sapiens, UniProt P17612).
T2 construct: PKA catalytic domain from Upstate Biotechnology (#14-440); purchased Upstate Biotechnology 14-440
Kind of experiment: Measurement of PKA kinase inhibitory activity (IC50). The format is biochemical. As to conditions: 1 nM enzyme, 40 μM ATP/γ33P-ATP, 5 μM substrate; read-out: PKA IC50. The procedure: A final concentration of 1 nM enzyme is used in a buffer that includes 20 mM MOPS pH 7.2, 40 μM ATP/γ^33P-ATP and 5 μM substrate. […] The reaction is allowed to proceed for 20 minutes before addition of excess orthophosphoric acid to quench activity. Unincorporated γ^33P-ATP is then separated from phosphorylated proteins on a Millipore MAPH filter plate. The plates are washed, scintillant is added and the plates are then subjected to counting on a Packard Topcount.

Structures are written as SMILES. A value given as a limit tells only on which side of the number the result lay.

T1 sequence (P31751 with tags, fused parts or gaps limits assumed): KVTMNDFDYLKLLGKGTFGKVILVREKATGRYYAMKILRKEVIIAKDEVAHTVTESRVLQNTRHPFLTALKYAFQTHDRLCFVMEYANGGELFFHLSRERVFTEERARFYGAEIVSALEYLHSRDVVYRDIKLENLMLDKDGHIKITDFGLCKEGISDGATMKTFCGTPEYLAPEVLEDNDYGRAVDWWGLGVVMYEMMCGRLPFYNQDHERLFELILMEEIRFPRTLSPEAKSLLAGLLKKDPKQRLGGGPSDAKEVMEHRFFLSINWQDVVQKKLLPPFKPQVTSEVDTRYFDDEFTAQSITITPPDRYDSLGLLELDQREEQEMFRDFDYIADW

`CNCC(O)(c1ccc(Cl)cc1)c1ccc(-c2cn[nH]c2)cc1` (centres unmarked) [Example 83, 1-(4-Chloro-phenyl)-2-methylamino-1-[4-(1H-pyrazol-4-yl)-phenyl]-ethanol]: the half-maximal inhibitory concentration (IC50) in experiment [1] and in experiment [2] was less than 1000 nM throughout.
Regarding `CNCC(Oc1ccccc1)c1ccc(-c2cn[nH]c2)cc1` (centres unmarked) [Example 48, Methyl-{2-phenoxy-2-[4-(1H-pyrazol-4-yl)-phenyl]-ethyl}-amine], the IC50 (usually the concentration needed to halve the response being measured) in experiment [1] is less than 5000 nM; in experiment [2] it was less than 1000 nM.
With `CNCC(c1ccc(OC)cc1)c1ccc(-c2cn[nH]c2)cc1` (centres unmarked) [Example 46, {2-(4-Methoxy-phenyl)-2-[4-(1H-pyrazol-4-yl)-phenyl]-ethyl}-methyl-amine], the concentration for half-maximal inhibition (IC50) in experiment [1] and in experiment [2] was less than 1000 nM in each case.
Turning to `NCCC(c1ccc(-c2cn[nH]c2)cc1)c1cccc(Cl)c1` (centres unmarked) [Example 90, 3-(3-Chloro-phenyl)-3-[4-(1H-pyrazol-4-yl)-phenyl]-propylamine], the IC50 in experiment [1] and in experiment [2] was less than 1000 nM in each case.
As for `Clc1ccc(C2(c3ccc(-c4cn[nH]c4)cc3)CCNCC2)cc1Cl` [Example 85, 4-(3,4-Dichloro-phenyl)-4-[4-(1H-pyrazol-4-yl)-phenyl]-piperidine], the IC50 in experiment [1] and in experiment [2] was less than 1000 nM each time.
Consider `NCC(c1ccc(Cl)cc1)c1ccc(-c2cn[nH]c2)cc1` (centres unmarked) [Example 4, 2-(4-Chloro-phenyl)-2-[4-(1H-pyrazol-4-yl)-phenyl]-ethylamine], for which the IC50 in experiment [2] is less than 1000 nM.
For `CCNCC(c1ccc(Cl)cc1)c1ccc(-c2cn[nH]c2)cc1` (centres unmarked) [Example 43, {2-(4-Chloro-phenyl)-2-[4-(1H-pyrazol-4-yl)-phenyl]-ethyl}-ethyl-amine], the IC50 in experiment [1] and in experiment [2] was less than 1000 nM in each case.
In the case of `CNC(=O)C(c1ccc(Cl)cc1)c1ccc(-c2cn[nH]c2)cc1` (centres unmarked) [Example 40, 2-(4-Chloro-phenyl)-N-methyl-2-[4-(1H-pyrazol-4-yl)-phenyl]-acetamide], in experiment [1], the IC50 was less than 50000 nM.
In the case of `Cc1n[nH]c(C)c1-c1ccc(C2(c3ccccc3)CCNCC2)cc1` [Example 18, 4-[4-(3,5-Dimethyl-1H-pyrazol-4-yl)-phenyl]-4-phenyl-piperidine], the half-maximal inhibitory concentration (IC50) in experiment [1] was less than 5000 nM.
Same read-out and setting: the result for `NCCC(c1ccc(-c2cn[nH]c2)nc1)c1ccc(Cl)c(Cl)c1` (centres unmarked) [Example 94, 3-(3,4-Dichloro-phenyl)-3-[6-(1H-pyrazol-4-yl)-pyridin-3-yl]-propylamine] reads less than 1000 nM.
The same measure, in the same setting: the result for `CN(C)CC(c1ccccc1)c1ccc(-c2cn[nH]c2)cc1` (centres unmarked) [Example 27, Dimethyl-{2-phenyl-2-[4-(1H-pyrazol-4-yl)-phenyl]-ethyl}-amine] reads less than 1000 nM.
On the same count and under the same terms, the result for `NC(c1ccc(Cl)cc1)c1ccc(-c2cn[nH]c2)cc1` (centres unmarked) [Example 104, C-(4-Chloro-phenyl)-C-[4-(1H-pyrazol-4-yl)-phenyl]-methylamine] reads less than 1000 nM; that for `CNCC(Oc1ccc(Cl)cc1)c1ccc(-c2cn[nH]c2)cc1` (centres unmarked) [Example 71, {2-(4-Chloro-phenoxy)-2-[4-(1H-pyrazol-4-yl)-phenyl]-ethyl}-methyl-amine], less than 1000 nM; that for `Clc1ccc(C(CN2CCOCC2)c2ccc(-c3cn[nH]c3)cc2)cc1` (centres unmarked) [Example 24, 4-{2-(4-Chloro-phenyl)-2-[4-(1H-pyrazol-4-yl)-phenyl]-ethyl}-morpholine], less than 5000 nM.
On to `CNCC(O)(c1ccc(-c2cn[nH]c2)cc1)c1ccc([N+](=O)[O-])cc1` (centres unmarked) [Example 91, 2-Methylamino-1-(4-nitro-phenyl)-1-[4-(1H-pyrazol-4-yl)-phenyl]-ethanol], for which the IC50 in experiment [1] was less than 1000 nM.
In the case of `CNCC(c1ccc(Oc2cc(C(N)=O)ccn2)cc1)c1ccc(-c2cn[nH]c2)cc1` (centres unmarked) [Example 70, 2-(4-{2-Methylamino-1-[4-(1H-pyrazol-4-yl)-phenyl]-ethyl}-phenoxy)-isonicotinamide], the concentration for half-maximal inhibition (IC50) in experiment [1] was less than 50000 nM.
Consider `NC(=O)CC(c1ccc(Cl)cc1)c1ccc(-c2cn[nH]c2)cc1` (centres unmarked) [Example 11, 3-(4-Chloro-phenyl)-3-[4-(1H-pyrazol-4-yl)-phenyl]-propionamide], for which the IC50 in experiment [1] is less than 5000 nM.

Values taken from US8541461B2 (Astex Therapeutics Limited, priority 2005, dated 2013).
